Reference: US12686689B2, “HPK1 inhibitor, preparation method therefor and use thereof” (WIGEN BIOMEDICINE TECHNOLOGY (SHANGHAI) CO., LTD., priority 2020, dated 2026)
pIC50: −log10 of the molar value.

Legend:
HPK1 = HPK1 (Homo sapiens, UniProt Q92918); experiment: Inhibitory effect against enzyme activity of HPK1 (lantha Screen, PKC substrate); assay type: biochemical; details: class symbols defined as IC50 ranges, read-out: Inhibition rate (%)
Method: Example 130: Assay of Inhibitory Effect of Compound Against Enzyme Activity of HPK1
The inhibitory effect of the compound against the enzyme activity of HPK1 was determined by using a lantha Screen method with PKC as a substrate. The process comprises the following specific steps: the HPK1 protein was incubated with the serially-diluted compound at 28° C. for 10 min followed by addition of fluoroescein-labeled PKC substrate and ATP to react for 90 min. After termination of the reaction, a Terbium-labeled antibody against phosphorylated PKC was added and incubated for 60 min. The energy transfer of Teribium and fluoroscein was monitored by detecting luminescence at 520 nm and 450 nm to quantify PKC as the level of phosphorylation of […]. Inhibition % and IC50 of the compound were calculated compared to the control group.

hERG potassium channel = biological target: T1, hERG potassium channel (Homo sapiens, UniProt Q12809); experiment: Inhibitory effect against hERG channel activity (manual patch clamp, HEK293 cells stably expressing hERG); assay type: cell-based; details: HEK293 cell line stably expressing hERG
T1 construct: expressed in transfected cells; host or cells: HEK293
T1 sequence (Q12809 whole entry): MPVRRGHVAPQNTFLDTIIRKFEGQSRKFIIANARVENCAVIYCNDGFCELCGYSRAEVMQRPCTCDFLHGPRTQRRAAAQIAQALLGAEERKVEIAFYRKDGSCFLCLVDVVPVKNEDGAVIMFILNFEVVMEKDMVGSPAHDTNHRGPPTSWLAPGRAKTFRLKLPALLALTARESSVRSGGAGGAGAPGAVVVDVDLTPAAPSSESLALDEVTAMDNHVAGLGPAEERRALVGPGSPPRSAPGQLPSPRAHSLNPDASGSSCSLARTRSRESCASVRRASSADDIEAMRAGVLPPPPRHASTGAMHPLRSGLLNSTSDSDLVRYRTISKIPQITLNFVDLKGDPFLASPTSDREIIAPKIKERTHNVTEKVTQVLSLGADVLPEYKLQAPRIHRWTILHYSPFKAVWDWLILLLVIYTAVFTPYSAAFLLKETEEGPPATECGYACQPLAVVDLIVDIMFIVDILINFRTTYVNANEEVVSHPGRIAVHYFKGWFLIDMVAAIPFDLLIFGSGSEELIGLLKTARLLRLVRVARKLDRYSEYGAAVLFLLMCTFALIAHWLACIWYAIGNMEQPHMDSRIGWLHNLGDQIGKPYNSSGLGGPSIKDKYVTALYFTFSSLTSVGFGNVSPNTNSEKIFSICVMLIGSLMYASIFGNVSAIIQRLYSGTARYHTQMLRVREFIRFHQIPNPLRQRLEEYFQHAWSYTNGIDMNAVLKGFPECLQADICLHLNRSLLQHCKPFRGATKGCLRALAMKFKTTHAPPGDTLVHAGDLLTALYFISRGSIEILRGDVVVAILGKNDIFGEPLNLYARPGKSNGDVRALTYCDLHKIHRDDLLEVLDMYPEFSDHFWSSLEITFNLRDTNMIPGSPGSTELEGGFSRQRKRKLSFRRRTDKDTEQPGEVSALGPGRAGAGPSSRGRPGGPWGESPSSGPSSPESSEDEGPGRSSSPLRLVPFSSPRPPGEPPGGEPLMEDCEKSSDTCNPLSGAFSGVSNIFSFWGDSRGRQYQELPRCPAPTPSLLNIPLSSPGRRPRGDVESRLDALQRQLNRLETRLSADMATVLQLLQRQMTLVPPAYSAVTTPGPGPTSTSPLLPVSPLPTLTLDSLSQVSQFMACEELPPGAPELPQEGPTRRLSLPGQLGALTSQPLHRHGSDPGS
Method: Example 131: Assay of Inhibitory Effect of Compound Against hERG Channel Activity
The HEK293 cell line stably expressed by the hERG potassium channel was adopted for detection using manual patch clamp. Firstly, the HEK293 cell line stably expressed by the hERG potassium channel was separated and laid on a cover glass before the patch clamp detection test, and the test detection was carried out after culture for 18 h. Then a capillary glass tube was drawn into a recording electrode, and the recording electrode was contacted onto the cells under an inverted microscope to form a whole-cell recording mode. After necessary compensation and recording of the membrane capacitance and series resistance, current recording was performed according to the set current stimulation protocol. After the hERG current stabilized, administration was started and the current detected in compound-free extracellular fluid for each cell served as its own control group, and multiple cells were repeatedly tested independently. The current acted for each drug concentration and the current of the blank control were standardized, then the inhibition rate corresponding to each drug concentration was calculated, and finally the half-inhibition concentration IC50 value of each compound was calculated.

Chain of HPK1 (Q92918 whole entry): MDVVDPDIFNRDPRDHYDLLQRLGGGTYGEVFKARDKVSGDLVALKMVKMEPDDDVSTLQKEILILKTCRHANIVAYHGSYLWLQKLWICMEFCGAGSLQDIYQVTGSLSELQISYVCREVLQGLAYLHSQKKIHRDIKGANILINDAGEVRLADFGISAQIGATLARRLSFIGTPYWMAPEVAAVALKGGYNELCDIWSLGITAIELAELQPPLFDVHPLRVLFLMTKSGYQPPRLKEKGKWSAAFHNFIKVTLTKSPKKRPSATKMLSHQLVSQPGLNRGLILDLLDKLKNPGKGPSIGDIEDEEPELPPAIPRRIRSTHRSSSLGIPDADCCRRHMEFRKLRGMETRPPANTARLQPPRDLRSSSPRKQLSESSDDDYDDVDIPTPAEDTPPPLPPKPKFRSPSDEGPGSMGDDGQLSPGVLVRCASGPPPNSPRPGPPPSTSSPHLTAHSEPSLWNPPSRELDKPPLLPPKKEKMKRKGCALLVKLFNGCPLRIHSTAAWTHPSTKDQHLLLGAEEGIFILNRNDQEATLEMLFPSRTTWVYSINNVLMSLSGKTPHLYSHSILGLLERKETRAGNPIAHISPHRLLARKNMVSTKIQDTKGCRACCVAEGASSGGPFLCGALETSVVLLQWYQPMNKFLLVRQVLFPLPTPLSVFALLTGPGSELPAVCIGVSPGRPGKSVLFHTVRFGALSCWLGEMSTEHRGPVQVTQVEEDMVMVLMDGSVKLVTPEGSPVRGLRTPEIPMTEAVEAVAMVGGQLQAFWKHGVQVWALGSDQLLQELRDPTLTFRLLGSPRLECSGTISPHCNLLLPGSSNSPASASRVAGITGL

Row | SMILES | pIC50 (HPK1) | pIC50 (hERG potassium channel)
1 | Cc1ccncc1-c1cc2c(-c3ccc4c(c3)OCC3CN(C)CCN43)n[nH]c2cc1C#N (centres unmarked) [Compound 43] | ≥ 8.00 | 4.76
2 | CN1CCN2c3ccc(-c4n[nH]c5cnc(-c6cccc(F)c6F)cc45)cc3OCC2C1 (centres unmarked) [Compound 67] | 7.00 to 8.00 | 4.29
3 | COc1ccc(F)c(F)c1-c1cc2c(-c3ccc4c(c3)OCC3CN(C)CCN43)n[nH]c2cn1 (centres unmarked) [Compound 73] | 7.00 to 8.00 | 4.39
4 | CN1CCN2c3ccc(-c4cnc5[nH]cc(-c6ccc(C(=O)N7CC(N(C)C)C7)cc6)c5n4)cc3OCC2C1 (centres unmarked) [Compound 112] | ≥ 8.00 | 4.45
